“Also recorded” adds a separate entry of the source. Like-named read-outs stand apart in the source and are kept apart here. One block for each compound: values may come before it. Where a SMILES comes first, the peptide text is derived from it.
Experiments:
TUC-3 cells [1] = conditions: cited from earlier work
[2] = biological target: T1, oncogenic ras-p21 (Val 12-p21) (Homo sapiens, UniProt P01112, G12V); conditions: cited from earlier work
T1 construct: host or cells: microinjected into Xenopus laevis oocytes

BMRPA1 cells = conditions: cited from earlier work
[3] = system: insulin-activated wild-type ras-p21; conditions: cited from earlier work
[4] = system: BMRPA1 pancreatic acinar cells; experiment: Peptide incubation with normal BMRPA1 cells
Excerpt: As described in several prior publications (16, 17, 20), we have developed two cell lines, one a normal contact-inhibited line of rat pancreatic acinar cells, called BMRPA1.430 (BMRPA1) cells and the other a pancreatic acinar carcinoma obtained by transfection of BMRPA1 cells with a plasmid containing an activated human K-ras oncogene [single base mutation at codon 12, valine substitution for the wild type glycine in the ras protein (K-ras^val12); a kind gift of Dr. M. Perucho (CIBR, La Jolla, Calif.)] and a neomycin resistance gene. […] In addition, they phenotypically maintain differentiated cell functions such as continued enzyme production and activation of zymogen secretion by secretagogue.
Approximately 300,000 cells (either BMRPA1 or TUC-3) were plated in each of six wells and were allowed to adhere overnight. In one set of experiments, the initial media consisted of DMEM with 10% fetal bovine serum that contained no peptide. In another set of experiments, the initial media contained peptide. In the first set, media containing peptide was added after 24 hours; in both sets, after the first 24 hours, the media was changed every 24 hours and always contained peptide at a particular concentration. Cells were observed daily for three weeks for changes in morphology and growth characteristics. Peptides were present at concentrations of […].

[5] = system: ras-transformed pancreatic cancer (TUC-3) cells; experiment: Peptide incubation with TUC-3 cells (morphology, phenotypic reversion); assay type: cell-based, rat
TUC-3 cells [6] = experiment: Explantation of peptide-treated, morphologically revertant TUC-3 cells into nude mice; assay type: in vivo, Nu/Nu mice; conditions: for Tumor Nodule Size: 5 × 10^6 TUC-3 cells treated 2 weeks with peptide, posterior cervical fat pad, 5 nude mice, mean ± SD
Experimental: To evaluate cells that appeared to be morphologically revertant to the normal phenotype, approximately 5×10^6 morphologically revertant TUC-3 cells treated for two weeks with 100 μg/ml of PNC-2 were injected subcutaneously into the posterior cervical fatpad of each of five Nu/Nu mice. Similarly, 5×10^6 untreated TUC-3 cells were explanted into another five Nu/Nu mice. Daily observations, over a 120 day period, were made on both sets of mice to determine if tumor nodules appeared at the site of injection.

[7] = biological target: Val 12-p21-JNK interaction (Homo sapiens, UniProt P01112, G12V); conditions: cited from earlier work
Val 12-Ha-ras-p21 = biological target: T2, Val 12-Ha-ras-p21 (Homo sapiens, UniProt P01112, G12V); experiment: Co-immunoprecipitation of raf, MEK, JNK and MAPK with injected Val 12-Ha-ras-p21 in oocytes; assay type: cell-based, Xenopus laevis; conditions: peptide co-injected with Val 12-p21 into oocytes; anti-Ha-ras immunoprecipitate (FIG. 4A)
T2 construct: host or cells: protein microinjected into Xenopus laevis oocytes
Experimental: In these experiments, the Ha-ras form of Val 12-p21 was injected into oocytes (100 ug/ml, 50 nl per oocyte) either alone or together with inhibitory p21 peptide (residues 96-110 shown in this figure). […] The lysate was centrifuged for 15 min at 17000×g at 4° C., and the supernatant was either used directly. The lysates were then subjected to immunoprecipitation using an anti-Ha-ras antibody (CalBiochem). In this procedure, cell lysate was first pre-cleared by incubation with 50 ul of protein A beads for 1 hr at room temperature, followed by centrifugation. Anti-Ha-ras antibody was added to the lysate such that 0.1 ug antibody was added per 250 ug of pre-cleared lysate protein. A volume of 25 μl protein A agarose beads (Sigma) was then added to the incubation mixture, and the resulting mixture was incubated overnight at 4° C., after which the mixture was centrifuged, and the immunoprecipitate was washed three times with 0.5 ml of kinase buffer as described above. Immunoprecipitates were subjected to SDS-PAGE as described above in the preceding paragraph and blotted with anti-Ha-ras (1:2000 with 0.25% BSA), anti-raf (CalBiochem, San Diego, Calif.), diluted 1:2000 with 0.25% BSA, anti-JNK polyclonal antibody (1:2000), anti-MEK (CalBiochem) and anti-MAPK, diluted 1:2000 with 0.25% BSA. […]

[8] = biological target: T1, oncogenic ras-p21 (Val 12-p21); experiment: Val 12-p21-induced oocyte maturation; assay type: cell-based, Xenopus laevis; conditions: peptide injected together with Val 12-p21

Compound: CO[C@@H]1[C@H](N(C)C(=O)c2ccccc2)C[C@H]2O[C@]1(C)n1c3ccccc3c3c4c(c5c6ccccc6n2c5c31)C(=O)NC4 [CGP 41 251]
effect on TUC-3 cells (TUC-3 cells [1]): induces both necrosis and phenotypic reversion of TUC-3 cells
growth of revertant TUC-3 cells in soft agar (TUC-3 cells [1]): fail to grow in soft agar
oncogenic ras-p21-induced oocyte maturation / mitogenic signaling in oocytes [2]: blocks oncogenic ras-p21-induced oocyte maturation
cytotoxicity to BMRPA1 cells (BMRPA1 cells): cytotoxic to BMRPA1 cells
insulin-activated wild-type ras-p21-induced oocyte maturation / signaling [3]: much less effect

effect on growth of BMRPA1 cells [4]: no apparent effects
Compound: CC[C@H](C)[C@H](NC(=O)[C@@H](NC(=O)[C@@H](NC(=O)[C@H](CCC(N)=O)NC(=O)[C@H](CCCCN)NC(=O)[C@H](CCCNC(=N)N)NC(=O)[C@H](Cc1ccc(O)cc1)NC(=O)[C@H](CO)NC(=O)[C@H](CC(=O)O)NC(=O)[C@H](CCC(=O)O)NC(=O)[C@@H](NC(=O)[C@@H](N)[C@@H](C)O)[C@@H](C)CC)C(C)C)C(C)C)C(=O)N[C@@H](CC(=O)O)C(=O)O [PNC-7, TIEDSYRKQVVID] (H-TIEDSYRKQVVID-OH)
cytotoxicity [4]: lack of cytotoxicity

effect on morphology of BMRPA1 cells [4]: no effect
Compound: CC[C@H](C)[C@H](NC(=O)[C@H](CCCNC(=N)N)NC(=O)[C@H](CCCCN)NC(=O)CNC(=O)[C@@H](NC(=O)[C@H](CO)NC(=O)[C@H](Cc1ccccc1)NC(=O)[C@@H]1CCCN1C(=O)[C@@H](N)CCSC)[C@@H](C)O)C(=O)N[C@@H](CCSC)C(=O)N[C@@H](CC(C)C)C(=O)NCC(=O)N[C@@H](CCC(=O)O)C(=O)N[C@@H](CCCCN)C(=O)N[C@@H](CCCCN)C(=O)N[C@@H](Cc1c[nH]c2ccccc12)C(=O)N[C@@H](CCCCN)C(=O)N[C@@H](CCSC)C(=O)N[C@@H](CCCNC(=N)N)C(=O)N[C@@H](CCCNC(=N)N)C(=O)N[C@@H](CC(N)=O)C(=O)N[C@@H](CCC(N)=O)C(=O)N[C@@H](Cc1ccccc1)C(=O)N[C@@H](Cc1c[nH]c2ccccc12)C(=O)N[C@H](C(=O)N[C@@H](CCCCN)C(=O)N[C@H](C(=O)N[C@@H](CCC(N)=O)C(=O)N[C@@H](CCCNC(=N)N)C(=O)NCC(=O)O)C(C)C)C(C)C [X13-leader, reference compound]

Compound: N[C@@H](Cc1ccc(O)cn1)C(=O)O [azatyrosine, reference compound]
oncogenic ras-p21-induced oocyte maturation / mitogenic signaling in oocytes [2]: selectively blocks oncogenic ras-p21-induced oocyte maturation

Compound: PNC-2-leader: ras-p21 residues 96-110 (SEQ ID NO:1) with penetratin leader KKWKMRRNQFWVKVQRG attached to its carboxyl terminal end (YREQIKRVKDSDVPKKWKMRRNQFWVKVQRG; amino acid residues 96-110 of oncogenic ras-p21 protein)
lowest concentration at which the morphological reversion of TUC-3 cells was achieved [5]: 1 ug/ml
phenotypic reversion of TUC-3 cells ([5]; 1 ug/ml, after two weeks): complete phenotypic reversion
change in cell morphology of TUC-3 cells ([5]; 100 μg/ml, 1 week (FIG. 2A)): the cells grow into contact-inhibited monolayers and show distinct cell boundaries
phenotypic reversion of TUC-3 cells ([5]; after one day of treatment (FIG. 2B: 100 μg/ml)): foci of acinar cellular differentiation appear
tumor formation by morphologically revertant TUC-3 cells in nude mice (TUC-3 cells [6]; cells treated two weeks with 100 ug/ml peptide, explanted subcutaneously): fail to form tumors up to two months after reversion

Compound: PNC-7-leader: ras-p21 residues 35-47 (TIEDSYRKQVVID, SEQ ID NO:2) with penetratin leader KKWKMRRNQFWVKVQRG attached to its carboxyl terminal end (TIEDSYRKQVVIDKKWKMRRNQFWVKVQRG; peptide amino acid residues 35-47 of oncogenic ras-p21 protein)
phenotypic reversion of TUC-3 cells ([5]; 100 and 200 ug/ml (FIG. 2C: two weeks)): phenotypic reversion of the cells
concentration at which complete reversion of TUC-3 cells was achieved ([5]; after two weeks of incubation): ≥ 100 µg/mL

Val 12-p21-induced oocyte maturation [8]: strongly inhibits maturation
Compound: YREQIKRVKDSDDVP (YREQIKRVKDSDVP; amino acid residues 96-110 of oncogenic ras-p21 protein) [PNC-2]
phenotypic reversion of TUC-3 cells [5]: 100%
interferes with / blocks Val 12-p21-JNK interaction [7]: blocks oncogenic ras-p21-JNK interactions; also recorded: blocks the interaction of Val 12-p21 with JNK; also recorded: interferes with Val 12-p21-JNK interaction
Tumor Nodule Size (TUC-3 cells [6]; day 0): 0.0 mm
Tumor Nodule Size (TUC-3 cells [6]; day 7): 0.0 mm
Tumor Nodule Size (TUC-3 cells [6]; day 14): 0.0 mm
Tumor Nodule Size (TUC-3 cells [6]; day 21): 0.0 mm
Tumor Nodule Size (TUC-3 cells [6]; day 28): 0.0 mm
Tumor Nodule Size (TUC-3 cells [6]; day 42): 0.0 mm
Tumor Nodule Size (TUC-3 cells [6]; day 56): 0.0 mm
co-precipitation of raf, MEK, JNK and MAPK with Val 12-ras-p21 (Val 12-Ha-ras-p21): none of these proteins precipitated with Val 12-ras-p21 although there is still some binding to raf
oncogenic ras-p21-induced oocyte maturation / mitogenic signaling in oocytes [2]: block mitogenic signaling by oncogenic ras-p21 in oocytes; also recorded: block oncogenic ras-induced oocyte maturation
cytotoxicity [4]: lack of cytotoxicity
effect on growth of BMRPA1 cells [4]: no apparent effects
insulin-activated wild-type ras-p21-induced oocyte maturation / signaling [3]: little effect; also recorded: do not block insulin-activated wild type ras-induced maturation
